Measurements taken from PubChem BioAssay (NCI).
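96-well plates; 48 h exposure; 5 concentrations. Endpoints by linear interpolation between flanking doses. Not reached: highest tested concentration assigned. GI50 marks 50% less growth. TGI: total growth inhibition.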

Assays:
Test in all cases: DTP human tumour cell line panel, 48 h
[1] = tested on: OVCAR-3 ovarian
[2] = tested on: UO-31 renal
[3] = tested on: U251 CNS
[4] = tested on: NCI/ADR-RES ovarian
[5] = tested on: SK-MEL-5 melanoma
[6] = tested on: HOP-62 NSCLC
[7] = tested on: K-562 leukemia
[8] = tested on: NCI-H460 lung
[9] = tested on: RXF 393 renal
[10] = tested on: MOLT-4 leukemia

Structure (SMILES)	GI50 [1] [µM]	TGI [1] [µM]	GI50 [2] [µM]	TGI [2] [µM]	GI50 [3] [µM]	TGI [3] [µM]	GI50 [4] [µM]	TGI [4] [µM]	GI50 [5] [µM]	TGI [5] [µM]	GI50 [6] [µM]	TGI [6] [µM]	GI50 [7] [µM]	TGI [7] [µM]	GI50 [8] [µM]	TGI [8] [µM]	GI50 [9] [µM]	TGI [9] [µM]	GI50 [10] [µM]	TGI [10] [µM]
O=[N+]([O-])c1ccc(C=C2C(Cl)=C(Cl)C(Cl)=C2Cl)cc1	1.83	3.46	1.47	3.16	1.77	3.46	3.05	17.2	21.8	> 100	1.96	4.38	3.68	> 100	3.62	> 100	1.81	3.39	3.07	> 100
Cc1cc(=O)[nH]c(NN2C(Cl)C(=O)C2c2cccc(O)c2)n1 (stereo not drawn)	–	27.4	–	24.7	–	> 100	–	–	–	> 100	–	> 100	–	> 100	–	> 100	–	> 100	–	> 100
COc1ccc(C2CC(c3cccc(Nc4ccncc4)c3)=NN2c2cc(Cl)cc(Cl)c2)cc1 (stereo not drawn)	1.81	3.35	1.36	2.74	–	–	1.72	3.27	1.81	3.28	2.08	4.66	2.41	5.57	1.86	3.45	–	–	2.04	4.97
Cc1ccc2c(n1)C(=O)c1[nH]c3ccccc3c1C2=O	1.26	5.72	1.63	10.7	2.93	> 100	2.28	9.29	0.212	0.583	–	–	3.14	> 100	0.337	1.63	2.72	55.4	3.25	18.9
c1ccc(N=C2SC(=NC3CCCCC3)N(C3CCCCC3)C2=Nc2ccccc2)cc1	–	> 100	–	> 100	–	> 100	–	> 100	–	> 100	–	> 100	–	> 100	–	> 100	–	> 100	–	> 100
CC(=O)OC1CCC2(C)C3CCC4(C)C(c5ccc(=O)oc5)CC5OC54C3CCC2(O)C1 (stereo not drawn)	–	2.29	–	9.38	–	9.14	–	6.99	–	4.76	–	3.41	–	24	–	1.75	–	1.61	–	0.934
Cc1nc(N)sc1-c1ccnc(Nc2ccc(N3CCOCC3)cc2)n1	7.37	> 100	1.28	> 51.1	2.36	> 100	3.43	> 100	5.05	> 100	1.87	60.3	1.6	> 100	0.495	> 43.9	0.938	2.78	0.497	> 56.1
CCC[CH2][Ge]([CH2]CCC)([CH2]CCC)[O]C(=O)CC(=O)c1ccccc1	2.63	17.6	1.66	15.9	3.27	17.6	–	–	–	–	2.2	13.6	0.346	14.7	0.325	12.4	0.728	3.65	0.457	18
O=C(OC(=O)n1ccc2ccccc21)n1ccc2ccccc21	–	> 100	–	> 100	–	> 100	–	> 100	–	> 100	–	> 100	–	> 100	–	> 100	–	> 100	–	> 100
O=NN(CCCl)C(=O)NC1CCSc2ccccc21 (stereo not drawn)	–	> 100	–	> 100	–	> 100	–	> 100	–	> 100	–	> 100	–	> 100	–	> 100	–	> 100	–	99.1
COc1ccccc1C1C(C(=O)O)=C(CO)Oc2cc3c(cc21)OCO3 (stereo not drawn)	–	> 100	–	> 100	–	> 100	–	–	–	> 100	–	–	–	> 100	–	> 100	–	–	–	> 100
NCCCNc1nc2ccccc2c2c(=O)c3cc(OC(F)(F)F)ccc3sc12	–	–	1.49	2.9	–	–	1.73	3.41	1.83	3.36	–	–	–	–	1.11	2.52	–	–	–	–
CC1CC=CC(O)C1 (stereo not drawn)	–	> 100	–	> 100	–	> 100	–	> 100	–	> 100	–	> 100	–	> 100	–	> 100	–	> 100	–	> 100
CC(=O)Oc1cccc2c(/C=N/NC(N)=S)ncc(C)c12	–	32.3	–	4.43	–	> 42.6	–	9.47	–	16.4	–	14.6	–	> 100	–	7.81	–	23.7	–	> 62.8
NC(Cc1cccc([N+](=O)[O-])c1)C(=O)O (stereo not drawn)	–	> 100	–	> 100	–	> 100	–	> 100	–	> 100	–	> 100	–	> 100	–	> 100	–	> 100	–	> 100
NC(CCCCP(=O)(O)O)C(=O)O (stereo not drawn)	–	> 100	–	> 100	–	> 100	–	> 100	–	> 100	–	–	–	> 100	–	> 100	–	> 100	–	> 100
NNC(N)Nc1ccccc1 (stereo not drawn)	–	> 100	–	> 100	–	> 100	–	> 100	–	> 100	–	> 100	–	> 100	–	> 100	–	> 100	–	> 100
